From patent US11498921B1, “Pyrimidine or pyridine compounds, preparation method therefor and pharmaceutical uses thereof” (INVENTISBIO CO., LTD., priority 2014, dated 2022)
Where a name gives a salt, the structure may show the parent alone.

Key:
[1] = test system: NCI-H1975 cells (T790M and L858R EGFR mutations); assay: Cell growth inhibition (Cell Titer-Glo), NCI-H1975; assay type: cell-based; settings: Homo sapiens, 72 hours drug treatment, 0.03 nM to 100 nM
Description: (§1) Experiment of Cell Growth Inhibition
(§2) The LoVo cell line is a wild-type EGFR human colon adenocarcinoma cell, and is grown in F-12K medium (GIBCO) containing 10% FBS. NCI-H2073 cell line is a wild-type EGFR human non-small cell lung cancer cell and grown in ACL-4 medium containing 10% FBS. The growth rate of NCI-H1975, LoVo and NCI-H2073 cells was detected by Cell Titer-Glo luminescence activity assay (Promega #G7572).
(§3) Briefly, trypsin was used for digesting cells in the logarithmic growth phase. 96-well plates were seeded with 50,000 Lovo or NCI-H2073 cells, 2500-3000 NCI-H1975 cells per well and provided with blank control wells containing only nutrient solution without inoculated cell, and the plates were incubated in a humidified incubator with 5% CO2 at 37° C. […] The concentration of test drug in NCI-H1975 cells was from 0.03 nM to 100 nM, and that in LoVo and NCI-H2073 cells was from 3 nM to 10 μM. The cell culture medium containing the different compounds was then added to a 96-well cell plate in which one cell control well comprising cell culture medium only containing DMSO was provided. After a drug treatment for 72 hours, the cell plates were removed from the incubator and allowed to stand at room temperature for 30 minutes. Next, Cell Titer-Glo reagent was added to the wells and the 96-well cell plate was shaken at room temperature for 10 minutes to induce cell lysis. The 96-well cell plate was placed on the bench for 2 minutes to stabilize the luminescence signal. Finally, the 96-well cell plate was placed in an EnVision Multi-labeled Microplate Reader (PerkinElmer), and the signal was read with an integral time of 0.5 seconds.
(§4) Formula: Percentage of cell growth inhibition %=(maximum signal−compound signal)/(maximum signal−minimum signal)*100%
(§5) The maximal signal was obtained from the cell control well which were treated with the DMSO solution having no any compound;
(§6) The compound signal was obtained from the drug-treated cell wells to which the compound was added;
(§7) The minimum signal was obtained from a blank control well to which no cells and only nutrient solution was added.

[2] = test system: LoVo cells (wild-type EGFR human colon adenocarcinoma); assay: Cell growth inhibition (Cell Titer-Glo), LoVo; assay type: cell-based; settings: 72 hours drug treatment, 3 nM to 10 μM
Description: as §1, §2, §3, §4, §5, §6, §7

[3] = test system: NCI-H2073 cells (wild-type EGFR human non-small cell lung cancer); assay: Cell growth inhibition (Cell Titer-Glo), NCI-H2073; assay type: cell-based; settings: 72 hours drug treatment, 3 nM to 10 μM
Description: as §1
as §2, with “The compounds that were preferentially targeted for EGFR targeting certain mutations and relatively weak in wild-type EGFR were identified by determining the growth of cells. The NCI-H1975 cell line is a human non-small cell lung cancer cell containing T790M and L858R EGFR mutations, and the cell is grown in RPMI-1640 medium (GIBCO) containing 10% fetal bovine serum (FBS). The LoVo” for “The LoVo”
Briefly, trypsin was used for digesting cells in the logarithmic growth phase. 96-well plates were seeded with 50,000 Lovo or NCI-H2073 cells, 2500-3000 NCI-H1975 cells per well and provided with blank control wells containing only nutrient solution without inoculated cell, and the plates were incubated in a humidified incubator with 5% CO2 at 37° C. After 24 hours, the DMSO solution of the different compounds was diluted with a cell culture medium at 3.16 times per time to eight different concentrations from high to low levels. The concentration of test drug in NCI-H1975 cells was from 0.03 nM to 100 nM, and that in LoVo and NCI-H2073 cells was from 3 nM to 10 μM. The cell culture medium containing the different compounds was then added to a 96-well cell plate in which one cell control well comprising cell culture medium only containing DMSO was provided. After a drug treatment for 72 hours, the cell plates were removed from the incubator and allowed to stand at room temperature for 30 minutes. Next, Cell Titer-Glo reagent was added to the wells and the 96-well cell plate was shaken at room temperature for 10 minutes to induce cell lysis. The 96-well cell plate was placed on the bench for 2 minutes to stabilize the luminescence signal. Finally, the 96-well cell plate was placed in an EnVision Multi-labeled Microplate Reader (PerkinElmer), and the signal was read with an integral time of 0.5 seconds.
as §4, §5, §6, §7

[4] = Concentration of parent drug and metabolite AZ5104 in rat plasma; assay type: in vivo; settings: po, adult male rats, intragastrically, 10 mg/kg, 0.25-24 hours
Description: Comparison of the concentration of the metabolite AZ5104 in rats' body plasma of the pyrimidine compounds according to the present invention and AZD9291
Briefly, AZD9291 or the compound 49.(HCl)n of Example 49 or the compound 104.(MsOH) of Example 104 were administered intragastrically to 200-220 g of adult male rats at amount of 10 mg/kg. Each administration group had two to three rats. After administration, 150 μl of blood was extracted from the vein on the rat tail at different times (0.25, 0.5, 1, 2, 4, 6, 8, 12 and 24 hours), put in a tube with K2EDTA and placed immediately on ice. Then, the blood sample was centrifuged in centrifuge with a 4-degree at a speed of 2000 g for 15 minutes. The plasma was separated and placed in a small tube and stored in a refrigerator at −80° C. The concentration of parent drug and metabolite in plasma sample was analyzed by LC/MS.

## C=CC(=O)Nc1cc(Nc2nccc(-c3cn(C)c4ccccc34)n2)c(OC)cc1N(CC)CCN(C)C [9. (MsOH)2]
[1]
  IC50: 13 nM
[2]
  IC50: 2060 nM
[3]
  IC50: 1130 nM

## C=CC(=O)Nc1cc(Nc2nccc(N3CC(C)(C)c4ccccc43)n2)c(OC)cc1N(C)CCN(C)C [37. (MsOH)3]
[1]
  IC50: 8.1 nM
[2]
  IC50: 4660 nM
[3]
  IC50: 260 nM

## C=CC(=O)Nc1cc(Nc2nccc(-c3cn(CC)c4ccccc34)n2)c(OC)cc1N(C)CCN(C)C [48. (HCl)n]
[1]
  IC50: 5.5 nM
[2]
  IC50: 2340 nM
[3]
  IC50: 435 nM

## C=CC(=O)Nc1cc(Nc2nccc(-c3nc(C)c4ccccn34)n2)c(OC)cc1N(C)CCN(C)C [52. (HCl)n]
[1]
  IC50: 5.2 nM
[2]
  IC50: 6100 nM
[3]
  IC50: 220 nM

## C=CC(=O)Nc1cc(Nc2nccc(N3CCOc4ccccc43)n2)c(OC)cc1N(C)CCN(C)C [36. (MsOH)3]
[1]
  IC50: 15 nM
[2]
  IC50: 4330 nM
[3]
  IC50: 410 nM

## C=CC(=O)Nc1cc(Nc2nccc(-c3cccc4c3cnn4C)n2)c(OC)cc1N(C)CCN(C)C [42. (HCl)n]
[1]
  IC50: 7.1 nM
[2]
  IC50: 7100 nM
[3]
  IC50: 490 nM

## C=CC(=O)Nc1cc(Nc2nccc(-c3cn(CC(F)(F)F)c4ccccc34)n2)c(OC)cc1N(C)CCN(C)C [104. (MsOH)2]
[4]
  AUC: 1.49 µM·h
[1]
  IC50: 16.5 nM
[3]
  IC50: 977 nM

## C=CC(=O)Nc1cc(Nc2nccc(-c3cn(C)c4ccccc34)n2)c(OC)cc1N1CC(N2CCC2)C1 [Example 22]
[1]
  IC50: 20.5 nM
[2]
  IC50: > 10000 nM
[3]
  IC50: > 10000 nM

## C=CC(=O)Nc1cc(Nc2nccc(-c3cn(C)c4ccccc34)n2)c(OC)cc1N(C)CCN1CCC(O)C1 (centres unmarked) [53. (HCl)n]
[1]
  IC50: 14 nM
[2]
  IC50: 2860 nM
[3]
  IC50: 690 nM

## C=CC(=O)Nc1cc(Nc2nccc(-n3cc(C)c4ccccc43)n2)c(OC)cc1N(C)CCN(C)C [4. (MsOH)3]
[1]
  IC50: 8.6 nM
[2]
  IC50: 2570 nM
[3]
  IC50: 500 nM

## C=CC(=O)Nc1cc(Nc2nccc(N3CC4(CC4)c4ccccc43)n2)c(OC)cc1N(C)CCN(C)C [38. (HCl)n]
[1]
  IC50: 8.2 nM
[2]
  IC50: 2990 nM
[3]
  IC50: 476 nM

## C=CC(=O)Nc1cc(Nc2nccc(-n3c(=O)[nH]c4ccccc43)n2)c(OC)cc1N(C)CCN(C)C [39. (MsOH)3]
[1]
  IC50: 0.8 nM
[2]
  IC50: 3390 nM
[3]
  IC50: 18 nM

## C=CC(=O)Nc1cc(Nc2nccc(-c3cn(C)c4ccccc34)n2)c(OC)cc1OCCN(C)C [29. (MsOH)2]
[1]
  IC50: 13 nM
[2]
  IC50: 2520 nM
[3]
  IC50: 2520 nM

## C=CC(=O)Nc1cc(Nc2nccc(-n3c(=O)n(C)c4ccccc43)n2)c(OC)cc1N(C)CCN(C)C [40. (MsOH)3]
[1]
  IC50: 1.3 nM
[2]
  IC50: 6090 nM
[3]
  IC50: 183 nM

## C=CC(=O)Nc1cc(Nc2nccc(-c3cn(C)c4ccccc34)n2)c(OC)cc1N(C)CCN(C)CC [7. (MsOH)3]
[1]
  IC50: 9.9 nM
[2]
  IC50: 2170 nM
[3]
  IC50: 760 nM

## C=CC(=O)Nc1cc(Nc2nccc(-n3nnc4ccccc43)n2)c(OC)cc1N(C)CCN(C)C [2. (MsOH)3]
[1]
  IC50: 6.1 nM
[2]
  IC50: 2300 nM
[3]
  IC50: 474 nM

## C=CC(=O)Nc1cc(Nc2nccc(-c3cccc4c3ccn4C)n2)c(OC)cc1N(C)CCN(C)C [41. (HCl)n]
[1]
  IC50: 7.4 nM
[2]
  IC50: > 10000 nM
[3]
  IC50: 340 nM

## C=CC(=O)Nc1cc(Nc2nccc(-n3[nH]c(=O)c4ccccc43)n2)c(OC)cc1N(C)CCN(C)C [50. (HCl)n]
[1]
  IC50: 9.2 nM
[2]
  IC50: > 10000 nM
[3]
  IC50: 290 nM

## C=CC(=O)Nc1cc(Nc2nccc(-c3cn(C)c4ccccc34)n2)c(OC)cc1N(C)CCN(C)C [AZD9291, reference compound]
[4]
  AUC: 0.64 µM·h

## C=CC(=O)Nc1cc(Nc2nccc(-c3cn(S(C)(=O)=O)c4ccccc34)n2)c(OC)cc1N(C)CCN(C)C [49. (HCl)n]
[4]
  AUC: 0.91 µM·h
[1]
  IC50: 0.7 nM
[2]
  IC50: 2260 nM
[3]
  IC50: 135 nM

## C=CC(=O)Nc1cc(Nc2nccc(-n3ccc4ccccc43)n2)c(OC)cc1N(C)CCN(C)C [3. (MsOH)2]
[1]
  IC50: 6.2 nM
[2]
  IC50: 3090 nM
[3]
  IC50: 295 nM

## C=CC(=O)Nc1cc(Nc2nccc(N3CCc4ccccc43)n2)c(OC)cc1N(C)CCN(C)C [5. (MsOH)3]
[1]
  IC50: 5.4 nM
[2]
  IC50: 4230 nM
[3]
  IC50: 335 nM

## C=CC(=O)Nc1cc(Nc2nccc(-n3ccc(=O)c4ccccc43)n2)c(OC)cc1N(C)CCN(C)C [56. (HCl)n]
[1]
  IC50: 36 nM
[2]
  IC50: 4180 nM
[3]
  IC50: > 10000 nM

## [2H]C([2H])([2H])Oc1cc(N(C)CCN(C)C)c(NC(=O)C=C)cc1Nc1nccc(-n2c(=O)n(C)c3ccccc32)n1 [60. (HCl)n]
[1]
  IC50: 1.4 nM
[2]
  IC50: 4070 nM
[3]
  IC50: 110 nM

## C=CC(=O)Nc1cc(Nc2nccc(-c3nn(CC)c4ccccc34)n2)c(OC)cc1N(C)CCN(C)C [51. (HCl)n]
[1]
  IC50: 2.6 nM
[2]
  IC50: 1280 nM
[3]
  IC50: 325 nM
